We go through 28 compounds from patent US8071605B2, “Piperidine compounds for use in the treatment of bacterial infections” (AstraZeneca AB, priority 2008, dated 2011).

Chain of S. aureus GyrB ATPase (P0AES4 whole entry): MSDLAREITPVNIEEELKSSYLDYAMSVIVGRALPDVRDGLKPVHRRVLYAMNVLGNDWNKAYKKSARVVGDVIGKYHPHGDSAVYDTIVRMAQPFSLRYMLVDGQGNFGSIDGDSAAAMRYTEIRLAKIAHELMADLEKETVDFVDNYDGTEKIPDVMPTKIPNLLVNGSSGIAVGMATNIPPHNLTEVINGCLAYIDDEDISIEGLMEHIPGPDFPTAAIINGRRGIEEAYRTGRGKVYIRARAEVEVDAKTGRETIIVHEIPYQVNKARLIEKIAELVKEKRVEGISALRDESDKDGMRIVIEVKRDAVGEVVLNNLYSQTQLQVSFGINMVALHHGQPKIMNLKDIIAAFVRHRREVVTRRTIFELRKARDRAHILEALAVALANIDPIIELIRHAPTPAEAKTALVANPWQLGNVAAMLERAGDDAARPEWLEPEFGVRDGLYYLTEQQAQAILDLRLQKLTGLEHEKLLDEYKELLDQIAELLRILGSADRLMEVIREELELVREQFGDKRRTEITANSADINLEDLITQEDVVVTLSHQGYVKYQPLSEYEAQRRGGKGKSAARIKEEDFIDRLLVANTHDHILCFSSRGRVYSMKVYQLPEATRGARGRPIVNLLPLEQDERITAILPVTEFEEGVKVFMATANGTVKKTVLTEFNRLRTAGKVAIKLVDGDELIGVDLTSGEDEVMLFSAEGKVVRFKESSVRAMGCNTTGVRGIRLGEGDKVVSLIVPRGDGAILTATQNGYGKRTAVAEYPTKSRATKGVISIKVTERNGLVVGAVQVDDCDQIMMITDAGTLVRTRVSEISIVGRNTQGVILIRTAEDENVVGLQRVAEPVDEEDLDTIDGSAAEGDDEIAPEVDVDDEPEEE
Chain of S. aureus GyrB ATPase (P0A0K8 whole entry): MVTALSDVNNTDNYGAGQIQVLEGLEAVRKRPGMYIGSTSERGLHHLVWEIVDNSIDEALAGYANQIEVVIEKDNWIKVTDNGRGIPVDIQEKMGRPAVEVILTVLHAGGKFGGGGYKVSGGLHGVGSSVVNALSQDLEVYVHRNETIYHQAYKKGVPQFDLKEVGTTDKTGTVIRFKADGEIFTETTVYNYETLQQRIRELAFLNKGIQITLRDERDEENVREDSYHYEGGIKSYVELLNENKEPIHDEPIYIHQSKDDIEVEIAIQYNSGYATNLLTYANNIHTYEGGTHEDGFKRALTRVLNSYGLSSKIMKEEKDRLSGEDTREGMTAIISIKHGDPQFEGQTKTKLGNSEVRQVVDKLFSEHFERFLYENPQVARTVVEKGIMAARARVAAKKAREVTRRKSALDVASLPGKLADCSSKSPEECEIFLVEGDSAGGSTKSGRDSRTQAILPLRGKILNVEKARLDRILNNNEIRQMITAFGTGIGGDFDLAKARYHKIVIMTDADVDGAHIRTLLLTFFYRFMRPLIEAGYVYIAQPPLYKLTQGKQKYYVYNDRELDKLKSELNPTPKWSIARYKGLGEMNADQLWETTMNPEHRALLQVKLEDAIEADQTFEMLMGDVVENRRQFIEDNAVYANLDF

This test concerns the target S. aureus GyrB ATPase (Staphylococcus aureus, UniProt P0A0K8). Put plainly: S. aureus GyrB ATPase inhibition (ammonium molybdate/malachite green phosphate detection). The test is classed as biochemical. As to conditions: compound concentration of 1 μM (unless otherwise noted). The method, then:
E. coli GyrB ATPase Inhibition Activity: Compounds can be tested for inhibition of E. coli GyrB ATPase activity using an ammonium molybdate/malachite green-based phosphate detection assay (Lanzetta, P. A., L. J. Alvarez, P. S. Reinach, and O. A. Candia, 1979, 100: 95-97). Assays can be performed in multiwell plates in 30 μl reactions containing: 50 mM Hepes buffer pH 7.5, 75 mM ammonium acetate, 8.0 mM magnesium chloride, 0.5 mM ethylenediaminetetraacetic acid, 5% glycerol, 1 mM 1,4-Dithio-DL-threitol, 200 nM bovine serum albumin, 1.6 μg/ml sheared salmon sperm DNA, 400 pM E. coli GyrA, 400 pM E. coli GyrB, 250 μM ATP, and compound in dimethylsulfoxide. Reactions can be quenched with 30 μl of ammonium molybdate/malachite green detection reagent containing 1.2 mM malachite green hydrochloride, 8.5 mM ammonium molybdate tetrahydrate, and 1 M hydrochloric acid. Plates can be read in an absorbance plate reader at 650 nm and percent inhibition values are calculated using dimethylsulfoxide (2%)-containing reactions as 0% inhibition and EDTA-containing (2.4 μM) reactions as 100% inhibition controls. An IC50 measurement of compound potency for each compound can be determined from reactions performed in the presence of 10 different compound concentrations. E. coli Topoisomerase IV ATPase Inhibition Activity: Compounds can be tested for inhibition of E. coli topoisomerase IV ATPase activity as described above for E. coli GyrB except the 30 μl reactions contained the following: 20 mM TRIS buffer pH 8, 50 mM ammonium acetate, 8 mM magnesium chloride, 5% glycerol, 5 mM 1,4-Dithio-DL-threitol, 0.005% Brij-35, 5 μg/ml sheared salmon sperm DNA, 500 pM E. coli ParC, 500 pM E. coli ParE, 160 μM ATP, and compound in dimethylsulfoxide. An IC50 measurement of compound potency for each compound can be determined from reactions performed in the presence of 10 different compound concentrations. S. aureus GyrB ATPase Inhibition Activity: Compounds may be tested for inhibition of S. aureus GyrB ATPase activity using an ammonium molybdate/malachite green-based phosphate detection assay (Lanzetta, P. A., L. J. Alvarez, P. S. Reinach, and O. A. Candia, 1979, 100: 95-97). Assays can be performed in multiwell plates in 30 μl reactions containing: 50 mM Hepes buffer pH 7.5, 75 mM ammonium acetate, 8.0 mM magnesium chloride, 0.5 mM ethylenediaminetetraacetic acid, 5% glycerol, 1.0 mM 1,4-Dithio-DL-threitol, 200 nM bovine serum albumin, 1.0 μg/ml sheared salmon sperm DNA, 250 pM E. coli GyrA, 250 pM S. aureus GyrB, 250 μM ATP, and compound in dimethylsulfoxide. Reactions can be quenched with 30 μl of ammonium molybdate/malachite green detection reagent containing 1.2 mM malachite green hydrochloride, 8.5 mM ammonium molybdate tetrahydrate, and 1 M hydrochloric acid. Plates can be read in an absorbance plate reader at 650 nm and percent inhibition values can be calculated using dimethylsulfoxide (2%)-containing reactions as 0% inhibition and EDTA-containing (2.4 μM) reactions as 100% inhibition controls. An IC50 measurement of compound potency for each compound can be determined from reactions performed in the presence of 10 different compound concentrations.
Compounds of the invention were tested in an assay substantially similar to the assay described above for measuring the inhibition of S. aureus GyrB ATPase. Percent inhibition of S. aureus GyrB ATPase at a compound concentration of 1 μM (unless otherwise noted) is disclosed in the following table: […]
Regarding `CCN1CCN(c2cnc(-c3nc(N4CC[C@@H](NC(=O)c5[nH]c(C)c(Cl)c5Cl)[C@@H](OC)C4)sc3C(=O)O)cn2)CC1` [Example 138], the inhibition at 1 µM stood at 103%.

On to `Cc1[nH]c(C(=O)N[C@@H]2CCN(c3nc(-c4cnc(N5CCNCC5)cn4)c(C(=O)O)s3)C[C@@H]2C)c(Cl)c1Cl` [Example 168, 2-[(3S,4R)-4-{[(3,4-dichloro-5-methyl-1H-pyrrol-2-yl)carbonyl]amino}-3-methylpiperidin-1-yl]-4-[5-(piperazin-1-yl)pyrazin-2-yl]-1,3-thiazole-5-carboxylic acid], for which the inhibition at 1 µM is 102%.

As for `Cc1[nH]c(C(=O)N[C@@H]2CCN(c3nc(-c4ncccc4F)c(C(=O)O)s3)C[C@@H]2C)cc1Cl` [Example 20], the inhibition at 1 µM is 118%.

As for `CO[C@H]1CN(c2nc(-c3cnc(N4CCN(CC5CCCN(C)C5)CC4)cn3)c(C(=O)O)s2)CC[C@H]1NC(=O)c1[nH]c(C)c(Cl)c1Cl` (stereo partly shown) [Example 135], the inhibition at 1 µM is 98%.

As to `Cc1[nH]c(C(=O)N[C@@H]2CCN(c3nc(-c4ncccc4F)c(C(=O)O)s3)C[C@@H]2C)c(Cl)c1Cl` [Example 24], the inhibition at 1 µM came out at 120%.

For `CCO[C@H]1CN(c2nc(-c3cnc(NCCN4CCN(C)CC4)cn3)c(C(=O)O)s2)CC[C@H]1NC(=O)c1[nH]c(C)c(Cl)c1Cl` [Example 95], the inhibition at 1 µM is 114%.

`Cc1[nH]c(C(=O)N[C@@H]2CCN(c3nc(-c4cnc(N5CCN(C)CC5)cn4)c(C(=O)O)s3)C[C@@H]2C)c(Cl)c1Cl` [Example 167, 2-[(3S,4R)-4-{[(3,4-dichloro-5-methyl-1H-pyrrol-2-yl)carbonyl]amino}-3-methylpiperidin-1-yl]-4-[5-(4-methylpiperazin-1-yl)pyrazin-2-yl]-1,3-thiazole-5-carboxylic acid]: the inhibition at 1 µM worked out at 113%.

Consider `CCO[C@H]1CN(c2nc(-c3cnccn3)c(C(=O)O)s2)CC[C@H]1NC(=O)c1[nH]c(C)c(Cl)c1C#N` [Example 15], for which the inhibition at 1 µM amounted to 98%.

In the case of `CCO[C@H]1CN(c2nc(-c3cnc(N4CCN[C@H](C)C4)cn3)c(C(=O)O)s2)CC[C@H]1NC(=O)c1[nH]c(C)c(Cl)c1Cl` [Example 102], the inhibition at 1 µM was found to be 112%.

Consider `CO[C@H]1CN(c2nc(-c3cnc(NCCN4CCNC4=O)cn3)c(C(=O)O)s2)CC[C@H]1NC(=O)c1[nH]c(C)c(Cl)c1Cl` [Example 131], for which the inhibition at 1 µM worked out at 108%.

Regarding `Cc1[nH]c(C(=O)N[C@@H]2CCN(c3nc(-c4cnc(N5CCN(CC(C)C)CC5)cn4)c(C(=O)O)s3)C[C@@H]2C)c(Cl)c1Cl` [Example 176, 2-[(3S,4R)-4-{[(3,4-dichloro-5-methyl-1H-pyrrol-2-yl)carbonyl]amino}-3-methylpiperidin-1-yl]-4-{5-[4-(2-methylpropyl)piperazin-1-yl]pyrazin-2-yl}-1,3-thiazole-5-carboxylic acid], the inhibition at 1 µM is 108%.

In the case of `CO[C@H]1CN(c2nc(-c3cnc(N4CCOCC4)cn3)c(C(=O)O)s2)CC[C@H]1NC(=O)c1[nH]c(C)c(Cl)c1Cl` [Example 125], the inhibition at 1 µM is 111%.

Take `CCCO[C@H]1CN(c2nc(-c3ncccc3F)c(C(=O)O)s2)CC[C@H]1NC(=O)c1[nH]c(C)c(Cl)c1Cl` [Example 217, 2-[(3S,4R)-4-{[(3,4-dichloro-5-methyl-1H-pyrrol-2-yl)carbonyl]amino}-3-propoxypiperidin-1-yl]-4-(3-fluoropyridin-2-yl)-1,3-thiazole-5-carboxylic acid]: the inhibition at 1 µM was found to be 113%.

Consider `CO[C@H]1CN(c2nc(-c3cnc(NCCN4CCCC4=O)cn3)c(C(=O)O)s2)CC[C@H]1NC(=O)c1[nH]c(C)c(Cl)c1Cl` [Example 127], for which the inhibition at 1 µM was determined as 110%.

As to `COCCNc1cnc(-c2nc(N3CC[C@@H](NC(=O)c4[nH]c(C)c(Cl)c4Cl)[C@@H](C)C3)sc2C(=O)O)cn1` [Example 170, 2-[(3S,4R)-4-{[(3,4-dichloro-5-methyl-1H-pyrrol-2-yl)carbonyl]amino}-3-methylpiperidin-1-yl]-4-{5-[(2-methoxyethyl)amino]pyrazin-2-yl}-1,3-thiazole-5-carboxylic acid], the inhibition at 1 µM was 119%.

Regarding `CCO[C@H]1CN(c2nc(-c3cnc(N4CCN(CC5CCCO5)CC4)cn3)c(C(=O)O)s2)CC[C@H]1NC(=O)c1[nH]c(C)c(Cl)c1Cl` (stereo partly shown) [Example 104], the inhibition at 1 µM worked out at 105%.

Take `CCCO[C@H]1CN(c2nc(-c3ncccc3F)c(C(=O)O)s2)CC[C@H]1NC(=O)c1[nH]c(C)c(Cl)c1C#N` [Example 210, 2-[(3S,4R)-4-{[(4-chloro-3-cyano-5-methyl-1H-pyrrol-2-yl)carbonyl]amino}-3-propoxypiperidin-1-yl]-4-(3-fluoropyridin-2-yl)-1,3-thiazole-5-carboxylic acid]: the inhibition at 1 µM turned out to be 109%.

For the compound `CCO[C@H]1CN(c2nc(-c3ncnn3C)c(C(=O)O)s2)CC[C@H]1NC(=O)c1[nH]c(C)c(Cl)c1Cl` [Example 8], the inhibition at 1 µM was found to be 100%.

In the case of `CCO[C@H]1CN(c2nc(-c3ncccc3F)c(C(=O)O)s2)CC[C@H]1NC(=O)c1[nH]c(C)c(Cl)c1Cl` [Example 10], the inhibition at 1 µM came out at 90%.

`CCO[C@H]1CN(c2nc(-c3cnc(N4CCN(CC5CCCN(C)C5)CC4)cn3)c(C(=O)O)s2)CC[C@H]1NC(=O)c1[nH]c(C)c(Cl)c1Cl` (stereo partly shown) [Example 97]: the inhibition at 1 µM is 112%.

As for `Cc1[nH]c(C(=O)N[C@@H]2CCN(c3nc(-c4cnc(NCCN5CCCC5=O)cn4)c(C(=O)O)s3)C[C@@H]2C)c(Cl)c1Cl` [Example 169, 2-[(3S,4R)-4-{[(3,4-dichloro-5-methyl-1H-pyrrol-2-yl)carbonyl]amino}-3-methylpiperidin-1-yl]-4-(5-{[2-(2-oxopyrrolidin-1-yl)ethyl]amino}pyrazin-2-yl)-1,3-thiazole-5-carboxylic acid], the inhibition at 1 µM turned out to be 102%.

For `CCCO[C@H]1CN(c2nc(-c3ncnn3C)c(C(=O)O)s2)CC[C@H]1NC(=O)c1cc(Cl)c(C)[nH]1` [Example 200, 2-[(3S,4R)-4-{[(4-chloro-5-methyl-1H-pyrrol-2-yl)carbonyl]amino}-3-propoxypiperidin-1-yl]-4-(1-methyl-1H-1,2,4-triazol-5-yl)-1,3-thiazole-5-carboxylic acid], the inhibition at 1 µM was determined as 106%.

Take `CCO[C@H]1CN(c2nc(-c3cnc(N4CCNCC4)cn3)c(C(=O)O)s2)CC[C@H]1NC(=O)c1[nH]c(C)c(Cl)c1Cl` [Example 89]: the inhibition at 1 µM came to 110%.

Regarding `CO[C@H]1CN(c2nc(-c3cnc(OCCN4CCN(C)CC4)cn3)c(C(=O)O)s2)CC[C@H]1NC(=O)c1[nH]c(C)c(Cl)c1Cl` [Example 64], the inhibition at 1 µM worked out at 104%.

On to `CCO[C@H]1CN(c2nc(-c3cnccn3)c(C(=O)O)s2)CC[C@H]1NC(=O)c1[nH]c(C)c(Cl)c1Cl` [Example 11], for which the inhibition at 1 µM amounted to 101%.

`CCN(CC)CCN1CCN(c2cnc(-c3nc(N4CC[C@@H](NC(=O)c5[nH]c(C)c(Cl)c5Cl)[C@@H](C)C4)sc3C(=O)O)cn2)CC1` [Example 180, 2-[(3S,4R)-4-{[(3,4-dichloro-5-methyl-1H-pyrrol-2-yl)carbonyl]amino}-3-methylpiperidin-1-yl]-4-(5-{4-[2-(diethylamino)ethyl]piperazin-1-yl}pyrazin-2-yl)-1,3-thiazole-5-carboxylic acid]: the inhibition at 1 µM came out at 103%.

On to `CO[C@H]1CN(c2nc(-c3nccc(N4CCN(CC(C)C)CC4)n3)c(C(=O)O)s2)CC[C@H]1NC(=O)c1[nH]c(C)c(Cl)c1Cl` [Example 192, 2-[(3S,4R)-4-{[(3,4-dichloro-5-methyl-1H-pyrrol-2-yl)carbonyl]amino}-3-methoxypiperidin-1-yl]-4-{4-[4-(2-methylpropyl)piperazin-1-yl]pyrimidin-2-yl}-1,3-thiazole-5-carboxylic acid], for which the inhibition at 1 µM is 108%.

`COCCn1ccnc1-c1nc(N2CC[C@@H](NC(=O)c3[nH]c(C)c(Cl)c3C#N)[C@@H](C)C2)sc1C(=O)O` [Example 27]: the inhibition at 1 µM came out at 102%.
